According to patent US10660877B2 (BRISTOL-MYERS SQUIBB COMPANY, priority 2016, dated 2020):
Like-named read-outs stand apart in the source and are kept apart here.

Tests used:
human TLR7 = human TLR7 (Homo sapiens (Human), UniProt Q9NYK1); experiment: TLR7 inhibition reporter assay (HEK-Blue cells, SEAP reporter, gardiquimod stimulation); type: cell-based; settings: HEK-Blue cells, gardiquimod 7.5 μM
human TLR8 = human TLR8 (Homo sapiens (Human), UniProt Q9NR97); experiment: TLR8 inhibition reporter assay (HEK-Blue cells, SEAP reporter, R848 stimulation);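 note: compounds tested from 0.05 nM to 50 µM, 22 h at 37 °C, SEAP measured with HEK-Blue Detection, inhibition relative to agonist plus DMSO versus a known inhibitor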
Sequence of human TLR8 (Q9NR97 27-1041): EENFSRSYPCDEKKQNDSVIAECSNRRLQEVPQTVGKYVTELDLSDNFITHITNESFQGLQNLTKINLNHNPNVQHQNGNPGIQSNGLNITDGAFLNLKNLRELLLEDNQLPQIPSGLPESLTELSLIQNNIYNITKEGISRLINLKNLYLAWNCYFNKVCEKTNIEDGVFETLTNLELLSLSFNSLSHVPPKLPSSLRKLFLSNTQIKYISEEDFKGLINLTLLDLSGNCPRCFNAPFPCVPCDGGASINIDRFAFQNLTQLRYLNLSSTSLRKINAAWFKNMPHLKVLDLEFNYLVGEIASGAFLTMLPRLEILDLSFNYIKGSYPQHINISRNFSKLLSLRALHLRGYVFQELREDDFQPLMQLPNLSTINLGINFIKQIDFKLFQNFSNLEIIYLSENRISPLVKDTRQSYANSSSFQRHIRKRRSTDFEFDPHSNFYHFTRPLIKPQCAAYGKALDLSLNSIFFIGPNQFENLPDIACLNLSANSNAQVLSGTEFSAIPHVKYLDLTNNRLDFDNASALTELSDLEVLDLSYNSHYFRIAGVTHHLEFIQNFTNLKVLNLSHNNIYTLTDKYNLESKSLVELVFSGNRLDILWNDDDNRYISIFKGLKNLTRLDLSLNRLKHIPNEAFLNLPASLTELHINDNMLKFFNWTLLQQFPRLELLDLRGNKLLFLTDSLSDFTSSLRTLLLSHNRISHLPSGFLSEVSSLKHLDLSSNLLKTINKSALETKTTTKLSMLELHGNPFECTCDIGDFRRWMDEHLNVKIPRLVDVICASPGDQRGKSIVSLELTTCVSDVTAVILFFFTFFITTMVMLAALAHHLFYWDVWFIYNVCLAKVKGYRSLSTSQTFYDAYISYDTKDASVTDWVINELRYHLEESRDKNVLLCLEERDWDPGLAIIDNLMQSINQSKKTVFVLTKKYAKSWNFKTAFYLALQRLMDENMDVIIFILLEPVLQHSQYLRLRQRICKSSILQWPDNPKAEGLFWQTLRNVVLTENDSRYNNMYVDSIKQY

human TLR9 = human TLR9 (Homo sapiens (Human), UniProt Q9NR96); experiment: TLR9 inhibition reporter assay (HEK-Blue cells, SEAP reporter, ODN2006 stimulation);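 note: compounds tested over 0.05 nM to 50 µM, 22 h incubation, inhibition taken as SEAP signal drop from agonist plus DMSO wells toward a known inhibitor control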
Sequence of human TLR9 (Q9NR96 26-1032): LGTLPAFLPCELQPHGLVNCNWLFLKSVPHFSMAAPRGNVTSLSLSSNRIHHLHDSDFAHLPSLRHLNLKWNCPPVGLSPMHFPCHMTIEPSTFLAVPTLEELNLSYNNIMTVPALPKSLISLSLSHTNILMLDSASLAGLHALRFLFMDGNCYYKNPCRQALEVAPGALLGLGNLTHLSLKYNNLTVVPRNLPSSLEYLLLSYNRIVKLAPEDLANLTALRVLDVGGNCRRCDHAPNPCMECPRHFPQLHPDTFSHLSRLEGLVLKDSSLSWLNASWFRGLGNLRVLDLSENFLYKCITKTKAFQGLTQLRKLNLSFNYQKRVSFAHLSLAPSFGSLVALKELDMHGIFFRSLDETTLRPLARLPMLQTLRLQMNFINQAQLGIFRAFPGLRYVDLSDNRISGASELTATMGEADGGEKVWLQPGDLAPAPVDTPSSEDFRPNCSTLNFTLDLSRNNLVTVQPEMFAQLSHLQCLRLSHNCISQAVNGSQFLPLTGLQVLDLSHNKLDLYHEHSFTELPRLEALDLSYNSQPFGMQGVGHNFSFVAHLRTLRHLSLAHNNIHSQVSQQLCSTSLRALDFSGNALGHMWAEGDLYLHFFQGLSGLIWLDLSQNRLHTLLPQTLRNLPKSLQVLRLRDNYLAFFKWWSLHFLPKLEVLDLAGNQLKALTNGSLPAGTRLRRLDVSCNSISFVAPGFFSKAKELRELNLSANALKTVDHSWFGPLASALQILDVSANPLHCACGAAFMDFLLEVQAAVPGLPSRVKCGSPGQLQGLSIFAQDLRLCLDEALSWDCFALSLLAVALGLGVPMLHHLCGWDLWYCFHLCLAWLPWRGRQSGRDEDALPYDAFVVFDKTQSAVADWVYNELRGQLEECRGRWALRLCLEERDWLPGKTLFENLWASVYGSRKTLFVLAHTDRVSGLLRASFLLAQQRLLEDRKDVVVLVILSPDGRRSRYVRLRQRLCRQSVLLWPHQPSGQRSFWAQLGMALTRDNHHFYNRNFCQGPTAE

[1] = read-out: TLR8 IC50, HEK-Blue cells, R848 15.9 μM
[2] = read-out: TLR9 IC50, HEK-Blue cells, ODN2006 5 nM

Sequence of human TLR7 (Q9NYK1 27-1049): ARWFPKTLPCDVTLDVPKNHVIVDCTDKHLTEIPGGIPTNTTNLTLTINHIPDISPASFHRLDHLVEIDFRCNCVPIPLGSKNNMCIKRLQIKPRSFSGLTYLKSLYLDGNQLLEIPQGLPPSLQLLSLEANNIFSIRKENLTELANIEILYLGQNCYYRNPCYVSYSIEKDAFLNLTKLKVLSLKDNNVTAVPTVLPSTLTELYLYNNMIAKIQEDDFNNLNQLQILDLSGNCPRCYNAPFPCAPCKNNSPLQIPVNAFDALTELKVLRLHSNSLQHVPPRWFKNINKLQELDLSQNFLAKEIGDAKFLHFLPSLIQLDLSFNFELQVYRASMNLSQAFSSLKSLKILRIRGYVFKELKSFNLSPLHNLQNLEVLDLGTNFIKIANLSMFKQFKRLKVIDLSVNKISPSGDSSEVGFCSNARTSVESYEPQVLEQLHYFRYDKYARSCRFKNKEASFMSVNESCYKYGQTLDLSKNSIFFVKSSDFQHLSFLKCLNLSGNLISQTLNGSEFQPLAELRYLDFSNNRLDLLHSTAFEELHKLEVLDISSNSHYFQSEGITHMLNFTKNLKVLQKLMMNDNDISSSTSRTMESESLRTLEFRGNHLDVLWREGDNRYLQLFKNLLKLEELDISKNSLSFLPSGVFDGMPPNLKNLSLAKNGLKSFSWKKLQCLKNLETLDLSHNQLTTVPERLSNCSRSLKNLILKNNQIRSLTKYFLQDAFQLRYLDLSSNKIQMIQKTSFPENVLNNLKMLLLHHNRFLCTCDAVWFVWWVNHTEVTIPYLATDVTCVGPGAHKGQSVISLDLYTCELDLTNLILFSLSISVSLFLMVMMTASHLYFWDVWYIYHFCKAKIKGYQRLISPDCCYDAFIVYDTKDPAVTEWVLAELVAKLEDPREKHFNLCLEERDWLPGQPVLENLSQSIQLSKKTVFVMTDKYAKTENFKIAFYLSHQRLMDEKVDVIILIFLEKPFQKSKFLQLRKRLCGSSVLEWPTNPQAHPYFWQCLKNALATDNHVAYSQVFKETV

IC50 (human TLR7) [nM] | IC50 (human TLR8; [1]) [nM] | IC50 (human TLR9; [2]) [nM] | IC50 (human TLR8; TLR8 IC50, HEK-Blue cells, R848 15.9 μM) [nM] | IC50 (human TLR9; TLR9 IC50, HEK-Blue cells, ODN2006 5 nM) [nM] | Structure (SMILES)
71.5 | 5.8 | 209 | – | – | Cc1cc(-c2[nH]c3ccc(C4CCN(Cc5cnc[nH]5)CC4)cc3c2C(C)C)ccn1 [Example 820, 5-(1-((1H-imidazol-5-yl)methyl)piperidin-4-yl)-3-isopropyl-2-(2-methylpyridin-4-yl)-1H-indole]
36.3 | 4.8 | 192 | – | – | Cc1cc(-c2[nH]c3ccc(C4CCN(Cc5cnc(C)[nH]5)CC4)cc3c2C(C)C)ccn1 [Example 821, 3-isopropyl-5-(1-((2-methyl-1H-imidazol-5-yl)methyl)piperidin-4-yl)-2-(2-methylpyridin-4-yl)-1H-indole]
841 | 12900 | 1090 | – | – | CCc1c(-c2ccncc2)[nH]c2ccc(C3CCN(Cc4cnc(Nc5ccccn5)s4)CC3)cc12 [Example 822, 5-((4-(3-ethyl-2-(pyridin-4-yl)-1H-indol-5-yl)piperidin-1-yl)methyl)-N-(pyridin-2-yl)thiazol-2-amine]
36.2 | 7.6 | 400 | – | – | Cc1cc(-c2[nH]c3ccc(C4CCN(Cc5cnc[nH]5)CC4)cc3c2C(C)C)c(N)cn1 [Example 823, 4-(5-(1-((1H-imidazol-5-yl)methyl)piperidin-4-yl)-3-isopropyl-1H-indol-2-yl)-6-methylpyridin-3-amine]
13.8 | – | – | 1.2 | 729 | Cc1cc(-c2[nH]c3ccc(C4CCN(Cc5cnc[nH]5)CC4)cc3c2C(C)C)c(C)cn1 [Example 824, 5-(1-((1H-imidazol-5-yl)methyl)piperidin-4-yl)-2-(2,5-dimethylpyridin-4-yl)-3-isopropyl-1H-indole]
6.5 | 8.1 | 380 | – | – | Cc1cc(-c2[nH]c3cc(F)c(C4CCN(C5CCN(C(C)C)CC5)CC4)cc3c2C(C)C)ccn1 [Example 825, 6-fluoro-3-isopropyl-5-(1′-isopropyl-[1,4′-bipiperidin]-4-yl)-2-(2-methylpyridin-4-yl)-1H-indole]
42.6 | 186 | 43400 | – | – | CC(=O)N1CCC(c2ccc3[nH]c(-c4ccnc(C)c4)c(C(C)C)c3c2)CC1 [Example 826, 1-(4-(3-isopropyl-2-(2-methylpyridin-4-yl)-1H-indol-5-yl)piperidin-1-yl)ethan-1-one]
12.7 | 5.2 | 753 | – | – | CC(=O)N1CCC(N2CCC(c3ccc4[nH]c(-c5ccnc(C)c5)c(C(C)C)c4c3)CC2)CC1 [Example 827, 1-(4-(3-isopropyl-2-(2-methylpyridin-4-yl)-1H-indol-5-yl)-[1,4′-bipiperidin]-1′-yl)ethan-1-one]
1.2 | 4.8 | 267 | – | – | Cc1cc(-c2[nH]c3cc(F)c(C4CCN(C)CC4)cc3c2C(C)C)cc(C)n1 [Example 828, 2-(2,6-dimethylpyridin-4-yl)-6-fluoro-3-isopropyl-5-(1-methylpiperidin-4-yl)-1H-indole]
17.5 | 63.4 | 3070 | – | – | CC(=O)N1CCC(c2cc3c(C(C)C)c(-c4cc(C)nc(C)c4)[nH]c3cc2F)CC1 [Example 829, 1-(4-(2-(2,6-dimethylpyridin-4-yl)-6-fluoro-3-isopropyl-1H-indol-5-yl)piperidin-1-yl)ethan-1-one]
4.8 | 17.3 | 229 | – | – | Cc1cc(-c2[nH]c3cc(F)c(C4CCN(C5CC(C)OC(C)C5)CC4)cc3c2C(C)C)cc(C)n1 (stereo not drawn) [Example 830, 2-(2,6-dimethylpyridin-4-yl)-5-(1-(2,6-dimethyltetrahydro-2H-pyran-4-yl)piperidin-4-yl)-6-fluoro-3-isopropyl-1H-indole]
6.2 | 11.6 | 567 | – | – | Cc1cc(-c2[nH]c3cc(F)c(C4CCN(C5CCOCC5)CC4)cc3c2C(C)C)cc(C)n1 [Example 831, 2-(2,6-dimethylpyridin-4-yl)-6-fluoro-3-isopropyl-5-(1-(tetrahydro-2H-pyran-4-yl)piperidin-4-yl)-1H-indole]
6.2 | 25.4 | 3080 | – | – | Cc1cc(-c2[nH]c3cc(F)c(C4CCN(Cc5ncn(C)n5)CC4)cc3c2C(C)C)cc(C)n1 [Example 832, 2-(2,6-dimethylpyridin-4-yl)-6-fluoro-3-isopropyl-5-(1-((1-methyl-1H-1,2,4-triazol-3-yl)methyl)piperidin-4-yl)-1H-indole]
9.4 | 29.6 | 556 | – | – | Cc1cc(-c2[nH]c3cc(F)c(C4CCN(C5CC(C)OC(C)C5)CC4)cc3c2C(C)C)cc(C)n1 (stereo not drawn) [Example 833, 2-(2,6-dimethylpyridin-4-yl)-5-(1-(2,6-dimethyltetrahydro-2H-pyran-4-yl)piperidin-4-yl)-6-fluoro-3-isopropyl-1H-indole]
2.9 | 3.4 | 1950 | – | – | Cc1cc(-c2[nH]c3cc(F)c(C4CCN(CC(=O)N(C)C)CC4)cc3c2C(C)C)c(C)cn1 [Example 835, 2-(4-(2-(2,5-dimethylpyridin-4-yl)-6-fluoro-3-isopropyl-1H-indol-5-yl)piperidin-1-yl)-N,N-dimethylacetamide]
3.9 | 11.8 | 4730 | – | – | Cc1cc(-c2[nH]c3cc(F)c(C4CCN(CC(=O)N(C)C)CC4)cc3c2C(C)C)c(F)cn1 [Example 836, 2-(4-(6-fluoro-2-(5-fluoro-2-methylpyridin-4-yl)-3-isopropyl-1H-indol-5-yl)piperidin-1-yl)-N,N-dimethylacetamide]
1.9 | 11.4 | 194 | – | – | Cc1cc(-c2[nH]c3cc(F)c(C4CCN(CC(=O)N(C)C)CC4)cc3c2C(C)C)cc(C)n1 [Example 837, 2-(4-(2-(2,6-dimethylpyridin-4-yl)-6-fluoro-3-isopropyl-1H-indol-5-yl)piperidin-1-yl)-N,N-dimethylacetamide]
292 | 28.4 | 38 | – | – | Cc1c(-c2ccncc2)[nH]c2ccc(C3CCN(C4CCN(C(C)C)CC4)CC3)cc12 [Example 843, 5-(1′-isopropyl-[1,4′-bipiperidin]-4-yl)-3-methyl-2-(pyridin-4-yl)-1H-indole]
148 | 92.9 | 1170 | – | – | CCc1c(-c2ccnc(C)c2)[nH]c2ccc(C3CCN(C(=O)NC4CCNCC4)CC3)cc12 [Example 845, 4-(3-ethyl-2-(2-methylpyridin-4-yl)-1H-indol-5-yl)-N-(piperidin-4-yl)piperidine-1-carboxamide]
1590 | 1540 | > 50000 | – | – | CCc1c(-c2ccnc(C)c2)[nH]c2ccc(C3CCN(C(=O)NC4CCN(C(=O)C(F)(F)F)CC4)CC3)cc12 [Example 846, 4-(3-ethyl-2-(2-methylpyridin-4-yl)-1H-indol-5-yl)-N-(1-(2,2,2-trifluoroacetyl)piperidin-4-yl)piperidine-1-carboxamide]
2.3 | 1.7 | 398 | – | – | Cc1cc(-c2[nH]c3ccc(C4CCN(CC(C)(C)O)CC4)cc3c2C(C)C)cc(C)n1 [Example 848, 1-(4-(2-(2,6-dimethylpyridin-4-yl)-3-isopropyl-1H-indol-5-yl)piperidin-1-yl)-2-methylpropan-2-ol]
1.4 | 2.3 | 291 | – | – | Cc1cc(-c2[nH]c3ccc(C4CCN(CC(O)C(C)C)CC4)cc3c2C(C)C)cc(C)n1 (stereo not drawn) [Example 849, 1-(4-(2-(2,6-dimethylpyridin-4-yl)-3-isopropyl-1H-indol-5-yl)piperidin-1-yl)-3-methylbutan-2-ol]
3.8 | 4.7 | 312 | – | – | Cc1cc(-c2[nH]c3ccc(C4CCN(CC(O)C(C)(C)C)CC4)cc3c2C(C)C)cc(C)n1 (stereo not drawn) [Example 850, 1-(4-(2-(2,6-dimethylpyridin-4-yl)-3-isopropyl-1H-indol-5-yl)piperidin-1-yl)-3,3-dimethylbutan-2-ol]
10.4 | 0.7 | 1690 | – | – | Cc1cc(-c2[nH]c3ccc(C4CCN(CC(C)(C)O)CC4)cc3c2C(C)C)c(C)cn1 [Example 851, 1-(4-(2-(2,5-dimethylpyridin-4-yl)-3-isopropyl-1H-indol-5-yl)piperidin-1-yl)-2-methylpropan-2-ol]
4.1 | 3.8 | 631 | – | – | COC[C@H](O)CN1CCC(c2ccc3[nH]c(-c4cc(C)nc(C)c4)c(C(C)C)c3c2)CC1 [Example 852, (R)-1-(4-(2-(2,6-dimethylpyridin-4-yl)-3-isopropyl-1H-indol-5-yl)piperidin-1-yl)-3-methoxypropan-2-ol]
2.3 | 1 | 293 | – | – | C=CC(C)(O)CN1CCC(c2ccc3[nH]c(-c4cc(C)nc(C)c4)c(C(C)C)c3c2)CC1 (stereo not drawn) [Example 853, 1-(4-(2-(2,6-dimethylpyridin-4-yl)-3-isopropyl-1H-indol-5-yl)piperidin-1-yl)-2-methylbut-3-en-2-ol]
1 | 1.8 | 159 | – | – | Cc1cc(-c2[nH]c3ccc(C4CCN(CC(O)CO)CC4)cc3c2C(C)C)cc(C)n1 (stereo not drawn) [Example 854, 3-(4-(2-(2,6-dimethylpyridin-4-yl)-3-isopropyl-1H-indol-5-yl)piperidin-1-yl) propane-1,2-diol]
21.1 | 1.5 | 3300 | – | – | Cc1cc(-c2[nH]c3ccc(C4CCN(CC(O)C(C)C)CC4)cc3c2C(C)C)cc(C)n1 (stereo not drawn) [Example 855, 1-(4-(2-(2,6-dimethylpyridin-4-yl)-3-isopropyl-1H-indol-5-yl)piperidin-1-yl)-3-methylbutan-2-ol]
